# According to patent US12448373B2, “Azetidinyl-acetamides as CXCR7 inhibitors” (CHEMOCENTRYX, INC., priority 2021, dated 2025):
# Target: T1, CXCR7 (Homo sapiens, UniProt P25106)
# T1 construct: expressed in transfected cells; host or cells: CHO cells (CHO-CXCR7), transgenes maintained with Hygromycin B and G418
# Experiment: CXCR7 β-arrestin recruitment assay in CHO-CXCR7 cells (ProLink/EA β-galactosidase complementation), induced by human SDF-1a
# Format: cell-based
# Details: assay buffer, SDF-1a at EC50 concentration
# Procedure: CXCR7 is fused in frame with a small enzyme donor fragment ProLink and co-expressed in CHO cells stably expressing a fusion protein of β-arrestin and the larger, N-terminal deletion mutant of β-galactosidase (called enzyme acceptor or EA). Activation of the CXCR7 stimulates binding of β-arrestin to the ProLink-tagged CXCR7 and forces complementation of the two enzyme fragments, resulting in the formation of an active β-galactosidase enzyme. The β-galactosidase enzyme activity is measured with a substrate that generates fluorescence.
# CHO-CXCR7 cells (0.22×10^6/mL) were cultured in growth medium (Ham's F-12 medium with 10% fetal bovine serum (FBS)), Hygromycin B (200 ug/mL) and G418 (250 ug/mL) were used to maintain the transgenes. The day before the assay, the cells were detached from culture dishes with 0.25% trypsin-EDTA (Corning, Catalog No. 25-053-CI), plated into 96 well plate (2.2×10^5 cells/mL, 100 μL/well) and incubated overnight at 37° C. with 5% CO2. On the day of the assay, cell culture medium was removed and 100 uL of assay buffer (PBS or FBS) was added to each well. 1 μL of compound that were serially diluted in DMSO was added to each well. 5 μL of human SDF-la (Pepro Tech, Catalog No. 300-28A, at EC50 concentration pre-determined on the same day) was then added and mixed to induce CXCR7-mediated β-arrestin recruitment. The plates were incubated for 1.5 hours at 37° C. The assay buffer was removed, 100 μL substrate solution was added and the reaction was carried out at 37° C. for 30 minutes. The substrate solution was prepared by mixing 100 mL Phosphate Buffer (1M, Sigma, Catalog No. P3619-1GA), 100 mL 10% Triton X 100 (Sigma, Catalog No. T8787.), 5 mL MgCl2 (1M, Sigma, Catalog No. M1028), 1.5 mL, β-mercaptoethanol (Gibco, Catalog No. 21985-023.). 3-carboxyumbelliferyl β-D-galactopyranoside (ThermoFisher Scientific, Catalo No. F2905) was added at 0.4 mM right before use. The reaction was then stopped by adding 50 μL of Stop Solution (2.1% w/v Na2CO3) to each well. Fluorescence intensity was measured with a FlexStation 3 microplate reader (Molecular Devices) with the following setting—excitation: 360 nm, emission: 465 nm, manual Gain: 55. IC50 values were calculated with GraphPad Prism using 3 parameter nonlinear regression.
# T1 sequence (P25106 whole entry): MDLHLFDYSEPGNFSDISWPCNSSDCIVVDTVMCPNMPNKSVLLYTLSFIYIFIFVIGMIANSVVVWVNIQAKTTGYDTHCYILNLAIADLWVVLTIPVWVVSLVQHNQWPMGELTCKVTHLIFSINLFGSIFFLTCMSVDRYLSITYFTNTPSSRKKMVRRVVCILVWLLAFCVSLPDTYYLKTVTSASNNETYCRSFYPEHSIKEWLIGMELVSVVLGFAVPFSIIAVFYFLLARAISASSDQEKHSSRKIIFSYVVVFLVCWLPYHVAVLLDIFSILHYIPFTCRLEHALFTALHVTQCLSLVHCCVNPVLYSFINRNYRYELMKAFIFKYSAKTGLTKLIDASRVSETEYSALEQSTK
row,IC50 [nM],SMILES
1,< 5,CC(C)(NC(=O)CC1(NC(=O)c2cc(-c3ccc(F)cc3F)on2)CN([C@@H]2CCCCC2(C)C)C1)c1ccccn1 [Example 1.274]
2,5 to 100,CC(C)(NC(=O)CC1(NC(=O)c2nnc(-c3ccc(F)cc3F)s2)CN([C@H]2CC[C@](C)(O)CC2)C1)c1cc(Cl)ccc1F [Example 1.336]
3,< 5,CC(C)(NC(=O)CC1(NC(=O)c2cc(-c3ccc(F)cc3F)on2)CN([C@H]2CC[C@@](C)(O)CC2)C1)c1cc(F)cc(F)c1 [Example 1.152]
4,5 to 100,CC(C)(NC(=O)CC1(NC(=O)c2cc(-c3ccc(F)cc3F)on2)CN([C@H]2CC[C@@](C)(O)CC2)C1)c1cccc(C2CC2)c1 [Example 1.143]
5,< 5,Cc1cc(C)nc(C(C)(C)NC(=O)CC2(NC(=O)c3nnc(-c4ccc(F)cc4F)s3)CN([C@H]3CC[C@](C)(O)CC3)C2)c1 [Example 1.031]
6,< 5,CC(C)(NC(=O)CC1(NC(=O)c2cc(-c3ccc(F)cc3F)on2)CN([C@H]2CCCCC2(C)C)C1)c1ccccn1 [Example 1.275]
7,1000 to 20000,Cc1cc(C)nc(C(C)(C)NC(=O)CC2(NC(=O)c3noc(-c4ccc(F)cc4F)c3C)CN(C3CCCCC3)C2)n1 [Example 1.341]
8,< 5,CC(C)(NC(=O)CC1(NC(=O)c2cc(-c3ccc(F)cc3F)on2)CN([C@H]2CC[C@@](C)(O)CC2)C1)c1cc(Cl)ccc1F [Example 1.132]
9,5 to 100,COc1ccc(F)cc1C(C)(C)NC(=O)CC1(NC(=O)c2nnc(-c3ccc(F)cc3F)s2)CN([C@H]2CC[C@](C)(O)CC2)C1 [Example 1.017]
10,5 to 100,CCOc1cccc(C(C)(C)NC(=O)CC2(NC(=O)c3cc(-c4ccc(F)cc4F)on3)CN([C@H]3CC[C@@](C)(O)CC3)C2)c1 [Example 1.186]
11,100 to 1000,COc1cc(C(C)(C)NC(=O)CC2(NC(=O)c3cc(-c4ccc(F)cc4F)on3)CN(CC(C)(C)O)C2)ccn1 [Example 1.171]
12,100 to 1000,CC(C)(NC(=O)CC1(NC(=O)c2cc(-c3ccc(F)cc3F)on2)CN(C2CCC3(CC2)COC3)C1)c1ccc(F)cc1F [Example 1.254]
13,5 to 100,Cc1cc(C)nc(C(C)(C)NC(=O)CC2(NC(=O)c3nnc(-c4ccc(F)cc4F)s3)CN(CC3CC3)C2)n1 [Example 1.030]
14,5 to 100,Cc1cc(C2CC2)cc(C(C)(C)NC(=O)CC2(NC(=O)c3nnc(-c4ccc(F)cc4F)s3)CN([C@H]3CC[C@](C)(O)CC3)C2)n1 [Example 1.350]
15,5 to 100,Cc1cccc(C(C)(C)NC(=O)CC2(NC(=O)c3cc(-c4ccc(F)cc4F)on3)CN(C3CCC4(CC3)COC4)C2)n1 [Example 1.226]
16,5 to 100,CC(C)(NC(=O)CC1(NC(=O)c2cc(-c3ccc(F)cc3F)on2)CN([C@H]2CC[C@](C)(O)CC2)C1)c1ccnc2[nH]ccc12 [Example 1.101]
17,< 5,CC1(CN2CC(CC(=O)NC(C)(C)c3cccc(Cl)c3)(NC(=O)c3cc(-c4ccc(F)cc4F)on3)C2)COC1 [Example 1.216]
18,< 5,CC1(O)CCC(N2CC(CC(=O)NC3(c4ncccn4)CC3)(NC(=O)c3cc(-c4ccc(F)cc4F)on3)C2)CC1 (centres unmarked) [Example 1.277]
19,5 to 100,Cc1ccnc(C(C)(C)NC(=O)CC2(NC(=O)c3nnc(-c4ccc(F)cc4F)s3)CN([C@H]3CC[C@](C)(O)CC3)C2)n1 [Example 1.041]
20,5 to 100,CC(C)(NC(=O)CC1(NC(=O)c2cc(-c3ccc(F)cc3F)on2)CN([C@H]2CC[C@@](C)(O)CC2)C1)c1ccc(F)cc1F [Example 1.288]
21,5 to 100,Cc1cncc(C(C)(C)NC(=O)CC2(NC(=O)c3cc(-c4ccc(F)cc4F)on3)CN([C@H]3CC[C@@](C)(O)CC3)C2)c1 [Example 1.139]
22,5 to 100,Cc1ccc(C(C)(C)NC(=O)CC2(NC(=O)c3cc(-c4ccc(F)cc4F)on3)CN([C@H]3CC[C@@](C)(O)CC3)C2)c(F)c1 [Example 1.246]
23,5 to 100,CC(C)(O)CN1CC(CC(=O)NC(C)(C)c2ccccn2)(NC(=O)c2cc(-c3ccc(F)cc3F)on2)C1 [Example 1.255]
24,5 to 100,Cc1cc(C(C)(C)NC(=O)CC2(NC(=O)c3cc(-c4ccc(F)cc4F)on3)CN([C@H]3CC[C@](C)(O)CC3)C2)nc(C)n1 [Example 1.079]
25,< 5,CC(C)(NC(=O)CC1(NC(=O)c2nnc(-c3ccc(F)cc3F)s2)CN(C2CCCCC2)C1)c1cccc(Cl)c1 [Example 1.073]

row,IC50 [nM],SMILES
1,100 to 1000,Cc1ccc(C(C)(C)NC(=O)CC2(NC(=O)c3cc(-c4ccc(F)cc4F)on3)CN([C@H]3CC[C@](C)(O)CC3)C2)cc1 [Example 1.243]
2,5 to 100,CC(C)(NC(=O)CC1(NC(=O)c2cc(-c3ccc(F)cc3F)on2)CN(C2CC3(CC3)C2)C1)c1ccccn1 [Example 1.015]
3,< 5,Cc1cc(C(C)(C)NC(=O)CC2(NC(=O)c3cc(-c4ccc(F)cc4F)on3)CN([C@H]3CC[C@](C)(O)CC3)C2)ccn1 [Example 1.211]
4,< 5,CC(C)(NC(=O)CC1(NC(=O)c2cc(-c3ccc(F)cc3F)on2)CN([C@H]2CC[C@@](C)(O)CC2)C1)c1ccccn1 [Example 1.192]
5,5 to 100,CC(C)(NC(=O)CC1(NC(=O)c2cc(-c3ccc(F)cc3F)on2)CN([C@H]2CCC[C@@H](O)C2)C1)c1ccccn1 [Example 1.286]
6,1000 to 20000,C[C@]1(O)CC[C@H](N2CC(CC(=O)NCc3ccccn3)(NC(=O)c3cc(-c4ccc(F)cc4F)on3)C2)CC1 [Example 1.099]
7,5 to 100,CC(C)(NC(=O)CC1(NC(=O)c2cc(-c3ccc(F)cc3F)on2)CN(CC2CC2)C1)c1ccccc1 [Example 1.322]
8,100 to 1000,Cc1cc(C(C)C)cc(C(C)(C)NC(=O)CC2(NC(=O)c3cc(-c4ccc(F)cc4F)on3)CN([C@H]3CC[C@](C)(O)CC3)C2)n1 [Example 1.344]
9,1000 to 20000,CC(C)(NC(=O)CC1(NC(=O)c2cc(-c3ccc(F)cc3F)on2)CN([C@H]2CC[C@@](C)(C(=O)O)CC2)C1)c1ccccn1 [Example 1.107]
10,< 5,CC(C)(NC(=O)CC1(NC(=O)c2cc(-c3ccc(F)cc3F)on2)CN([C@H]2CC[C@](C)(O)CC2)C1)c1ncccn1 [Example 1.233]
11,< 5,CC(C)(NC(=O)CC1(NC(=O)c2cc(-c3ccc(F)cc3F)on2)CN([C@H]2CC[C@@](C)(O)CC2)C1)c1cccc(OC(F)(F)F)c1 [Example 1.197]
12,5 to 100,CC(C)(NC(=O)CC1(NC(=O)c2nnc(-c3ccc(F)cc3F)s2)CN(CC2CC2)C1)c1cccc(Cl)c1 [Example 1.038]
13,100 to 1000,CC(C)(O)CN1CC(CC(=O)NC(C)(C)c2ncccn2)(NC(=O)c2cc(-c3ccc(F)cc3F)on2)C1 [Example 1.231]
14,5 to 100,CC(C)(NC(=O)CC1(NC(=O)c2cc(-c3ccc(F)cc3F)on2)CN(C2CCCCC2)C1)c1ccc(F)cc1 [Example 1.298]
15,< 5,CC(C)(NC(=O)CC1(NC(=O)c2cc(-c3ccc(F)cc3F)on2)CN([C@H]2CC[C@](C)(O)CC2)C1)c1ccccc1C(F)(F)F [Example 1.291]
16,100 to 1000,CC(C)(CO)NC(=O)CC1(NC(=O)c2cc(-c3ccc(F)cc3F)on2)CN(C2CCCCC2)C1 [Example 1.309]
17,< 5,CC(C)(NC(=O)CC1(NC(=O)c2cc(-c3ccc(F)cc3F)on2)CN([C@H]2CC[C@@](C)(O)CC2)C1)c1ccccc1 [Example 1.267]
18,5 to 100,CC(C)(NC(=O)CC1(NC(=O)c2cc(-c3ccc(F)cc3F)on2)CN([C@H]2CC[C@](C)(O)CC2)C1)c1ccncn1 [Example 1.181]
19,5 to 100,COc1cc(C)cc(C(C)(C)NC(=O)CC2(NC(=O)c3nnc(-c4ccc(F)cc4F)s3)CN([C@H]3CC[C@](C)(O)CC3)C2)n1 [Example 1.346]
20,5 to 100,CC(C)(NC(=O)CC1(NC(=O)c2cnc(-c3ccc(F)cc3F)s2)CN([C@H]2CC[C@@](C)(O)CC2)C1)c1cccc(Cl)c1 [Example 1.068]
21,< 5,Cc1cc(Cl)cc(C(C)(C)NC(=O)CC2(NC(=O)c3cc(-c4ccc(F)cc4F)on3)CN([C@H]3CC[C@](C)(O)CC3)C2)n1 [Example 1.003]
22,< 5,Cc1cc(Cl)cc(C(C)(C)NC(=O)CC2(NC(=O)c3cc(-c4ccc(F)cc4F)on3)CN(C3CCOC(C)(C)C3)C2)n1 (centres unmarked) [Example 1.358]
23,< 5,CC(C)(NC(=O)CC1(NC(=O)c2nnc(-c3ccc(F)cc3F)s2)CN([C@H]2CC[C@@](C)(O)CC2)C1)c1cccc(Cl)c1 [Example 1.064]
24,< 5,CC(C)(NC(=O)CC1(NC(=O)c2cc(-c3ccc(F)cc3F)on2)CN([C@H]2CC[C@@](C)(O)CC2)C1)c1ncccn1 [Example 1.232]
25,5 to 100,C[C@]1(O)CC[C@H](N2CC(CC(=O)NC3(c4ncccn4)CC3)(NC(=O)c3cc(-c4ccc(F)cc4F)on3)C2)CC1 [Example 1.356]
